Measurements reported in PubChem BioAssay AID1963836 (Molecular Pharmacology Branch, DTP, NCI, 2024).

Test system: 857933-349-R-J2-PDC complex spheroid viability
Assay: Anticancer human tumor 857933-349-R-J2-PDC patient-derived colon adenocarcinoma cell line growth inhibition [POLQ]
Details: for IC50: curve of first compound; for viability, T/C: stronger effect = lower value
Method in brief: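 Patient-derived tumour cells were co-cultured with HUVEC and mesenchymal stem cells as multicellular spheroids at 37 °C. They were treated with POLQ inhibitors (novobiocin, ART-558, RP6685) alone or combined with other agents. Top concentrations were at or near clinical Cmax (otherwise 10 microM; SN-38 at 1 microM), decreasing in half-log steps.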

[1] = second compound 0.0316 µM, first compound 0.0316 µM
[2] = second compound 0.0316 µM, first compound 0.1 µM
[3] = second compound 0.0316 µM, first compound 0.316 µM
[4] = second compound 0.0316 µM, first compound 1 µM
[5] = second compound 0.0316 µM, first compound 3.16 µM
[6] = second compound 0.0316 µM, first compound 10 µM
[7] = second compound 0.1 µM, first compound 0.0316 µM
[8] = second compound 0.1 µM, first compound 0.1 µM
[9] = second compound 0.1 µM, first compound 0.316 µM
[10] = second compound 0.1 µM, first compound 1 µM
[11] = second compound 0.1 µM, first compound 3.16 µM
[12] = second compound 0.1 µM, first compound 10 µM
[13] = second compound 0.316 µM, first compound 0.0316 µM
[14] = second compound 0.316 µM, first compound 0.1 µM
[15] = second compound 0.316 µM, first compound 0.316 µM
[16] = second compound 0.316 µM, first compound 1 µM
[17] = second compound 0.316 µM, first compound 3.16 µM
[18] = second compound 0.316 µM, first compound 10 µM
[19] = second compound 1 µM, first compound 0.0316 µM
[20] = second compound 1 µM, first compound 0.1 µM
[21] = second compound 1 µM, first compound 0.316 µM
[22] = second compound 1 µM, first compound 1 µM
[23] = second compound 1 µM, first compound 3.16 µM
[24] = second compound 1 µM, first compound 10 µM
[25] = second compound 3.16 µM, first compound 0.0316 µM
[26] = second compound 3.16 µM, first compound 0.1 µM
[27] = second compound 3.16 µM, first compound 0.316 µM
[28] = second compound 3.16 µM, first compound 1 µM
[29] = second compound 3.16 µM, first compound 3.16 µM
[30] = second compound 3.16 µM, first compound 10 µM
[31] = second compound 10 µM, first compound 0.0316 µM
[32] = second compound 10 µM, first compound 0.1 µM
[33] = second compound 10 µM, first compound 0.316 µM
[34] = second compound 10 µM, first compound 1 µM
[35] = second compound 10 µM, first compound 3.16 µM
[36] = second compound 10 µM, first compound 10 µM
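Further: spheroids exposed to compounds for seven days before readout.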

CC(=O)O[C@H]1C(=O)[C@@]2(C)[C@H]([C@H](OC(=O)c3ccccc3)[C@]3(O)C[C@H](OC(=O)[C@H](O)[C@@H](NC(=O)c4ccccc4)c4ccccc4)C(C)=C1C3(C)C)[C@]1(OC(C)=O)CO[C@@H]1C[C@@H]2O + COC1C(OC(N)=O)C(O)C(Oc2ccc3c(O)c(NC(=O)c4ccc(O)c(CC=C(C)C)c4)c(=O)oc3c2C)OC1(C)C
IC50 (second compound 0.0316 µM): < 0.00949 µM | IC50 (second compound 0.1 µM): 0.0146 µM | IC50 (second compound 0.316 µM): 0.0132 µM | IC50 (second compound 1 µM): 0.0122 µM | IC50 (second compound 3.16 µM): 0.00976 µM | IC50 (second compound 10 µM): 0.0113 µM | viability, T/C (second compound 0.0316 µM, first compound 0.00949 µM): 48.7% | viability, T/C (second compound 0.0316 µM, first compound 0.03 µM): 25% | viability, T/C (second compound 0.0316 µM, first compound 0.0949 µM): 19.1% | viability, T/C (second compound 0.0316 µM, first compound 0.3 µM): 17.6% | viability, T/C (second compound 0.0316 µM, first compound 0.949 µM): 15.8% | viability, T/C (second compound 0.0316 µM, first compound 3 µM): 20.8% | viability, T/C (second compound 0.1 µM, first compound 0.00949 µM): 61% | viability, T/C (second compound 0.1 µM, first compound 0.03 µM): 31.7% | viability, T/C (second compound 0.1 µM, first compound 0.0949 µM): 15.2% | viability, T/C (second compound 0.1 µM, first compound 0.3 µM): 15.4% | viability, T/C (second compound 0.1 µM, first compound 0.949 µM): 15.1% | viability, T/C (second compound 0.1 µM, first compound 3 µM): 16.5% | viability, T/C (second compound 0.316 µM, first compound 0.00949 µM): 57.8% | viability, T/C (second compound 0.316 µM, first compound 0.03 µM): 30.2% | viability, T/C (second compound 0.316 µM, first compound 0.0949 µM): 15.7% | viability, T/C (second compound 0.316 µM, first compound 0.3 µM): 19.7% | viability, T/C (second compound 0.316 µM, first compound 0.949 µM): 13.8% | viability, T/C (second compound 0.316 µM, first compound 3 µM): 25.4% | viability, T/C (second compound 1 µM, first compound 0.00949 µM): 58.7% | viability, T/C (second compound 1 µM, first compound 0.03 µM): 19.7% | viability, T/C (second compound 1 µM, first compound 0.0949 µM): 12.8% | viability, T/C (second compound 1 µM, first compound 0.3 µM): 20.5% | viability, T/C (second compound 1 µM, first compound 0.949 µM): 16.1% | viability, T/C (second compound 1 µM, first compound 3 µM): 20.3% | viability, T/C (second compound 3.16 µM, first compound 0.00949 µM): 50.7% | viability, T/C (second compound 3.16 µM, first compound 0.03 µM): 21.3% | viability, T/C (second compound 3.16 µM, first compound 0.0949 µM): 15.2% | viability, T/C (second compound 3.16 µM, first compound 0.3 µM): 16.4% | viability, T/C (second compound 3.16 µM, first compound 0.949 µM): 16.4% | viability, T/C (second compound 3.16 µM, first compound 3 µM): 19.3% | viability, T/C (second compound 10 µM, first compound 0.00949 µM): 54.5% | viability, T/C (second compound 10 µM, first compound 0.03 µM): 25.5% | viability, T/C (second compound 10 µM, first compound 0.0949 µM): 18.3% | viability, T/C (second compound 10 µM, first compound 0.3 µM): 17.4% | viability, T/C (second compound 10 µM, first compound 0.949 µM): 15.7% | viability, T/C (second compound 10 µM, first compound 3 µM): 20.7%

COc1cc(C2c3cc4c(cc3C(OC3OC5COC(C)OC5C(O)C3O)C3COC(=O)C23)OCO4)cc(OC)c1O (stereo unspecified) + COC1C(OC(N)=O)C(O)C(Oc2ccc3c(O)c(NC(=O)c4ccc(O)c(CC=C(C)C)c4)c(=O)oc3c2C)OC1(C)C
IC50 (second compound 0.0316 µM): 0.352 µM | IC50 (second compound 0.1 µM): 0.399 µM | IC50 (second compound 0.316 µM): 0.488 µM | IC50 (second compound 1 µM): 0.453 µM | IC50 (second compound 3.16 µM): 0.358 µM | IC50 (second compound 10 µM): 0.386 µM | viability, T/C [1]: 80.7% | viability, T/C [2]: 88.3% | viability, T/C [3]: 51.3% | viability, T/C [4]: 46.2% | viability, T/C [5]: 36.1% | viability, T/C [6]: 28.7% | viability, T/C [7]: 71.1% | viability, T/C [8]: 84.7% | viability, T/C [9]: 53.5% | viability, T/C [10]: 42.3% | viability, T/C [11]: 35.5% | viability, T/C [12]: 30.4% | viability, T/C [13]: 74.1% | viability, T/C [14]: 79.3% | viability, T/C [15]: 54.6% | viability, T/C [16]: 41% | viability, T/C [17]: 34.7% | viability, T/C [18]: 29.9% | viability, T/C [19]: 81.9% | viability, T/C [20]: 71.3% | viability, T/C [21]: 54.6% | viability, T/C [22]: 39.6% | viability, T/C [23]: 34.2% | viability, T/C [24]: 29.9% | viability, T/C [25]: 88.2% | viability, T/C [26]: 99% | viability, T/C [27]: 52.1% | viability, T/C [28]: 37.5% | viability, T/C [29]: 30.3% | viability, T/C [30]: 30.1% | viability, T/C [31]: 94.5% | viability, T/C [32]: 65.7% | viability, T/C [33]: 54.6% | viability, T/C [34]: 39.8% | viability, T/C [35]: 37.6% | viability, T/C [36]: 32.1%

COc1cccc2c1C(=O)c1c(O)c3c(c(O)c1C2=O)CC(O)(C(=O)CO)CC3OC1CC(N)C(O)C(C)O1 (stereo unspecified) + COC1C(OC(N)=O)C(O)C(Oc2ccc3c(O)c(NC(=O)c4ccc(O)c(CC=C(C)C)c4)c(=O)oc3c2C)OC1(C)C
IC50 (second compound 0.0316 µM): 0.334 µM | IC50 (second compound 0.1 µM): 0.216 µM | IC50 (second compound 0.316 µM): 0.326 µM | IC50 (second compound 1 µM): 0.226 µM | IC50 (second compound 3.16 µM): 0.32 µM | IC50 (second compound 10 µM): 0.263 µM | viability, T/C [1]: 73.1% | viability, T/C [2]: 80.2% | viability, T/C [3]: 51.4% | viability, T/C [4]: 8.39% | viability, T/C [5]: 0.35% | viability, T/C [6]: 0.47% | viability, T/C [7]: 64.2% | viability, T/C [8]: 70.5% | viability, T/C [9]: 41.3% | viability, T/C [10]: 5.48% | viability, T/C [11]: 0.39% | viability, T/C [12]: 0.29% | viability, T/C [13]: 79.8% | viability, T/C [14]: 76.2% | viability, T/C [15]: 51.3% | viability, T/C [16]: 8.79% | viability, T/C [17]: 0.37% | viability, T/C [18]: 0.44% | viability, T/C [19]: 70.9% | viability, T/C [20]: 58.8% | viability, T/C [21]: 45.6% | viability, T/C [22]: 6.1% | viability, T/C [23]: 0.31% | viability, T/C [24]: 0.43% | viability, T/C [25]: 68.3% | viability, T/C [26]: 68.2% | viability, T/C [27]: 50.3% | viability, T/C [28]: 9.54% | viability, T/C [29]: 0.51% | viability, T/C [30]: 0.49% | viability, T/C [31]: 75.1% | viability, T/C [32]: 80.3% | viability, T/C [33]: 43.5% | viability, T/C [34]: 10% | viability, T/C [35]: 0.39% | viability, T/C [36]: 0.49%
